Laboratory results reported in ChEMBL document CHEMBL4706552, “Discovery of 4-methyl-N-(4-((4-methylpiperazin- 1-yl)methyl)-3-(trifluoromethyl)phenyl)-3-((6-(pyridin-3-yl)-1H-pyrazolo[3,4-d]pyrimidin-4-yl)-oxy)benzamide as a potent inhibitor of RET and its gatekeeper mutant” (Eur J Med Chem, 2020).
Calls of active or inactive are those of the source. The rule behind the calls is not given here.

How the values were obtained:
[1] = molecular target: T1, Coiled-coil domain-containing protein 6/Tyrosine-protein kinase receptor RET (Homo sapiens) (UniProt P07949+Q16204); assay: Inhibition of CCDC6-RET fusion protein (unknown origin) expressed in mouse BaF3 cells assessed as reduction in cell proliferation measured after 48 hrs by MTS assay; assay type: cell-based
T1 sequence (P07949 29-1114 limits assumed): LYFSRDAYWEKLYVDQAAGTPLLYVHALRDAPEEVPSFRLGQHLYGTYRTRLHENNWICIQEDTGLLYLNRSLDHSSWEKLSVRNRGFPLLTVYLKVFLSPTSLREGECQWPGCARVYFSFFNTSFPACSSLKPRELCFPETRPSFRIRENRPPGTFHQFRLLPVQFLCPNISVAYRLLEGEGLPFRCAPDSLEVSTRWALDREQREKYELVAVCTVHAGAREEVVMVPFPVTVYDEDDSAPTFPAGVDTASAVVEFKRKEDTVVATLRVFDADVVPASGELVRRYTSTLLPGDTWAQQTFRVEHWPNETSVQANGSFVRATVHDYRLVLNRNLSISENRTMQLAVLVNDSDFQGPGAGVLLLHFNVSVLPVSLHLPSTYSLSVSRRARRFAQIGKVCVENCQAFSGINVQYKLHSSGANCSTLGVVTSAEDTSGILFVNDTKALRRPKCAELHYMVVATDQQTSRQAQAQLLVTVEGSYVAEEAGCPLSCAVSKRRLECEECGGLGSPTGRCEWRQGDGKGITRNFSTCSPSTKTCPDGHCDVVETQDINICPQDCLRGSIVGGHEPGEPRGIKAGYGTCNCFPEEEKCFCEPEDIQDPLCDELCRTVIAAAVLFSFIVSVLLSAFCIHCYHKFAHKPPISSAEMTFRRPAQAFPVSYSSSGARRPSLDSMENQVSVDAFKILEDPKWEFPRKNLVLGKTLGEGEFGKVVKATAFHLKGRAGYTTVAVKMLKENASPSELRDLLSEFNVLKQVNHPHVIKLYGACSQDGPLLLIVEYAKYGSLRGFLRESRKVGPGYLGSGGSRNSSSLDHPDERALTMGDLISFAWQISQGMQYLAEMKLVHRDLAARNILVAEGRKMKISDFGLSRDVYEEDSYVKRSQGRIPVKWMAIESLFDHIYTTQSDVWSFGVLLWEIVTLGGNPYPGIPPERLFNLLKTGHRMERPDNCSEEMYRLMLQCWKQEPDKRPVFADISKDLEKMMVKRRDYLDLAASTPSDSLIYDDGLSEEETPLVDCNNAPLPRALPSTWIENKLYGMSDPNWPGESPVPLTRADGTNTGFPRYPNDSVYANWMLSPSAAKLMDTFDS
T1 sequence (Q16204 2-474 partner limits assumed): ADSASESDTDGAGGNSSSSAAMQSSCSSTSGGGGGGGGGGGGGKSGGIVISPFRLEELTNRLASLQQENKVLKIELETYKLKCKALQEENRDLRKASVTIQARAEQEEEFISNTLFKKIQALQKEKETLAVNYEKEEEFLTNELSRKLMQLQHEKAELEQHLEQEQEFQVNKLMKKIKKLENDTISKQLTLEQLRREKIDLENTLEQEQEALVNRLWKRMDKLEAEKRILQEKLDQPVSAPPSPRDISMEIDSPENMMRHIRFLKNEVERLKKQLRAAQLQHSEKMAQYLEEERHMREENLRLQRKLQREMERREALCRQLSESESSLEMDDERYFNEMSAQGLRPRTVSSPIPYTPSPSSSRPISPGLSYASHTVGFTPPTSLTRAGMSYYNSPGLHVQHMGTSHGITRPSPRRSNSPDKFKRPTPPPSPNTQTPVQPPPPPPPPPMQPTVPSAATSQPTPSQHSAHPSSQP

[2] = Cytotoxicity against mouse BaF3 cells assessed as reduction in cell proliferation measured after 48 hrs by MTS assay; assay type: cell-based
[3] = molecular target: Proto-oncogene tyrosine-protein kinase receptor Ret (Homo sapiens, UniProt P07949, M918T); assay: Inhibition of recombinant human N-terminal GST-HIS6 fused RET M918T mutant C-terminal domain (H658 to S1114 residues) expressed in Sf9 insect cells using TRK-C-derived peptide as substrate in presence of [33P]-ATP by filter binding assay
Sequence of Proto-oncogene tyrosine-protein kinase receptor Ret (Homo sapiens, UniProt P07949, M918T) (P07949 29-1114 M918T limits assumed): as the sequence (P07949 29-1114 limits assumed) above, with M890T counted along it

[4] = molecular target: Proto-oncogene tyrosine-protein kinase receptor Ret (Homo sapiens, UniProt P07949, V804L); assay: Inhibition of recombinant human N-terminal GST-HIS6 fused RET V804L mutant C-terminal domain (H658 to S1114 residues) expressed in Sf9 insect cells using TRK-C-derived peptide as substrate in presence of [33P]-ATP by filter binding assay
Sequence of Proto-oncogene tyrosine-protein kinase receptor Ret (Homo sapiens, UniProt P07949, V804L) (P07949 29-1114 V804L limits assumed): as the sequence (P07949 29-1114 limits assumed) above, with V776L counted along it

[5] = molecular target: Coiled-coil domain-containing protein 6/Tyrosine-protein kinase receptor RET (Homo sapiens, UniProt P07949); assay: Inhibition of human N-terminal GST-HIS6 fused CCDC6-RET fusion protein (Met1 to Ser503 residues) expressed in Sf9 insect cells using TRK-C-derived peptide as substrate in presence of [33P]-ATP by filter binding assay
Sequence of Coiled-coil domain-containing protein 6/Tyrosine-protein kinase receptor RET (P07949 whole entry, the tested form may be a part): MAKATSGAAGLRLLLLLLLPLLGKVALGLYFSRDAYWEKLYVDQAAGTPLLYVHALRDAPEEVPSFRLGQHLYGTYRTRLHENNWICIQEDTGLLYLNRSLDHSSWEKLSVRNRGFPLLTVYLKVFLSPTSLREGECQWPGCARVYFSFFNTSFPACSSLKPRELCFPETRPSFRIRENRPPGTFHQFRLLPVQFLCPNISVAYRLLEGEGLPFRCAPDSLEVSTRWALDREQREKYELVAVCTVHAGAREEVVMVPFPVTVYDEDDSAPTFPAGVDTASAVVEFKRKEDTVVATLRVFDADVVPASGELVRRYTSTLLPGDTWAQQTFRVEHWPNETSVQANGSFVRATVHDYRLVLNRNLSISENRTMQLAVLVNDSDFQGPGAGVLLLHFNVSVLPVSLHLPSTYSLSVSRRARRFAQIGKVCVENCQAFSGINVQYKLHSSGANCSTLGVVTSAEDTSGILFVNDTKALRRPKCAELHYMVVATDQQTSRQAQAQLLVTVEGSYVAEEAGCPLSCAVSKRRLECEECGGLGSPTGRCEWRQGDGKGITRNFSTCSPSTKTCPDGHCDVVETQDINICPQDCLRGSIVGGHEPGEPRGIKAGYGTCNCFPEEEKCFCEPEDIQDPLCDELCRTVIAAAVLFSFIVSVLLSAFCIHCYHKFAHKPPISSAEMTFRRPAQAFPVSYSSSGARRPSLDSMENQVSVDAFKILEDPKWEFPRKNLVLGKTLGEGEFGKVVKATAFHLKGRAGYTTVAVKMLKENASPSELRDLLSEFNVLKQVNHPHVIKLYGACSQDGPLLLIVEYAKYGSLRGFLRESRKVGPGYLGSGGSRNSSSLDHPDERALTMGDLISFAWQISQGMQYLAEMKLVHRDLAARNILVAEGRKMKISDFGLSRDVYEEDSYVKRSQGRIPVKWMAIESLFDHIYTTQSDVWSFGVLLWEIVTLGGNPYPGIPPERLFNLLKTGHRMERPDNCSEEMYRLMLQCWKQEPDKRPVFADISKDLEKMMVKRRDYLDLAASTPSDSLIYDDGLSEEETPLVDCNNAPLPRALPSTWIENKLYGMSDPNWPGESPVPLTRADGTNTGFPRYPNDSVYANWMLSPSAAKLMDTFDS
Sequence of Coiled-coil domain-containing protein 6/Tyrosine-protein kinase receptor RET (Q16204 whole entry, further chain, the tested form may be a part): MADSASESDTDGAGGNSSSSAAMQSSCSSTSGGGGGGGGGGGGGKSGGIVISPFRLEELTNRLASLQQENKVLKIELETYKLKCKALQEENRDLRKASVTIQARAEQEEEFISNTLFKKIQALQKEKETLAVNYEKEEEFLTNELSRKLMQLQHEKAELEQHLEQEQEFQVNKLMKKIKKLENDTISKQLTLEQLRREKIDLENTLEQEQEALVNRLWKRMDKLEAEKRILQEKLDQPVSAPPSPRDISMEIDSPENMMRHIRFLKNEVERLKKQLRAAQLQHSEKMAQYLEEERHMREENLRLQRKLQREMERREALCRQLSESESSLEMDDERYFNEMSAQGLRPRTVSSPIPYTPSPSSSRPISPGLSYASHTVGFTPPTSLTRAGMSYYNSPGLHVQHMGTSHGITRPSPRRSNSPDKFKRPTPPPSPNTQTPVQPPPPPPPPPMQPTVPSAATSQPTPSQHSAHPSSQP

[6] = system: Proto-oncogene tyrosine-protein kinase receptor Ret (Homo sapiens), P07949 [M918T]; assay: Binding affinity to wild-type human partial length RET M918T mutant (E713 to D1014 residues) expressed in bacterial expression system assessed as residual binding level at 1 uM by kinomescan method relative to control
Sequence of Proto-oncogene tyrosine-protein kinase receptor Ret (Homo sapiens), P07949 [M918T] (P07949 whole entry M918T, the tested form may be a part): as the sequence (P07949 whole entry, the tested form may be a part) above, with M918T counted along it

[7] = system: Proto-oncogene tyrosine-protein kinase receptor Ret (Homo sapiens), P07949 [V804L]; assay: Binding affinity to wild-type human partial length RET V804L mutant (E713 to D1014 residues) expressed in bacterial expression system assessed as residual binding level at 1 uM by kinomescan method relative to control
Sequence of Proto-oncogene tyrosine-protein kinase receptor Ret (Homo sapiens), P07949 [V804L] (P07949 whole entry V804L, the tested form may be a part): as the sequence (P07949 whole entry, the tested form may be a part) above, with V804L counted along it

[8] = system: Proto-oncogene tyrosine-protein kinase receptor Ret (Homo sapiens), P07949 [V804M]; assay: Binding affinity to wild-type human partial length RET V804M mutant (E713 to D1014 residues) expressed in bacterial expression system assessed as residual binding level at 1 uM by kinomescan method relative to control
Sequence of Proto-oncogene tyrosine-protein kinase receptor Ret (Homo sapiens), P07949 [V804M] (P07949 whole entry V804M, the tested form may be a part): as the sequence (P07949 whole entry, the tested form may be a part) above, with V804M counted along it

[9] = molecular target: T1, Coiled-coil domain-containing protein 6/Tyrosine-protein kinase receptor RET (Homo sapiens); assay: Inhibition of CCDC6-RET fusion protein in human LC-2-ad cells assessed as reduction in cell proliferation measured after 48 hrs by MTS assay; assay type: cell-based
[10] = system: A549; assay: Antiproliferative activity against human A549 cells measured after 48 hrs by MTS assay; assay type: functional
[11] = system: NCI-H3122; assay: Antiproliferative activity against human NCI-H3122 cells measured after 48 hrs by MTS assay; assay type: functional
[12] = Antiproliferative activity against human SKGT4 cells measured after 48 hrs by MTS assay; assay type: functional
[13] = system: KYSE-450; assay: Antiproliferative activity against human KYSE-450 cells at 3.3 uM measured after 48 hrs by MTS assay; assay type: functional; details: read-out: GI
[14] = system: Kinesin-1 heavy chain/ Tyrosine-protein kinase receptor RET (Homo sapiens), P07949+P33176 [V804M]; assay: Inhibition of KIF5B-RET V804M mutant fusion protein (unknown origin) expressed in mouse BaF3 cells assessed as reduction in RET autophosphorylation at 100 nM measured after 4 hrs by Western blot analysis; assay type: cell-based
[15] = system: Kinesin-1 heavy chain/ Tyrosine-protein kinase receptor RET (Homo sapiens), P07949+P33176 [V804M]; assay: Inhibition of KIF5B-RET V804M mutant fusion protein (unknown origin) expressed in mouse BaF3 cells assessed as reduction in […] measured after 4 hrs by Western blot analysis; assay type: cell-based
[16] = system: Kinesin-1 heavy chain/ Tyrosine-protein kinase receptor RET (Homo sapiens), P07949+P33176 [V804M]; assay: Inhibition of KIF5B-RET V804M mutant fusion protein (unknown origin) expressed in mouse BaF3 cells assessed as reduction in AKT phosphorylation at 500 nM measured after 4 hrs by Western blot analysis; assay type: cell-based
[17] = molecular target: T1, Coiled-coil domain-containing protein 6/Tyrosine-protein kinase receptor RET (Homo sapiens); assay: Inhibition of CCDC6-RET fusion protein (unknown origin) expressed in mouse BaF3 cells assessed as reduction in SHC phosphorylation at 10 to 500 nM measured after 4 hrs by Western blot analysis; assay type: cell-based; details: dose 10-500 nM
[18] = molecular target: T1, Coiled-coil domain-containing protein 6/Tyrosine-protein kinase receptor RET (Homo sapiens); assay: Inhibition of CCDC6-RET fusion protein (unknown origin) expressed in mouse BaF3 cells assessed as reduction in AKT phosphorylation at 10 to 500 nM measured after 4 hrs by Western blot analysis; assay type: cell-based; details: dose 10-500 nM
[19] = molecular target: T1, Coiled-coil domain-containing protein 6/Tyrosine-protein kinase receptor RET (Homo sapiens); assay: Inhibition of CCDC6-RET fusion protein (unknown origin) expressed in mouse BaF3 cells assessed as reduction in ERK phosphorylation at 10 to 500 nM measured after 4 hrs by Western blot analysis; assay type: cell-based; details: dose 10-500 nM
[20] = system: BaF3; assay: Inhibition of CCDC6-RET V804M mutant fusion protein (unknown origin) expressed in mouse BaF3 cells assessed as reduction in RET phosphorylation at 10 to 500 nM measured after 4 hrs by Western blot analysis; assay type: cell-based; details: Homo sapiens, dose 10-500 nM
[21] = system: BaF3; assay: Inhibition of CCDC6-RET V804M mutant fusion protein (unknown origin) expressed in mouse BaF3 cells assessed as reduction in ERK phosphorylation at 10 to 500 nM measured after 4 hrs by Western blot analysis; assay type: cell-based; details: Homo sapiens, dose 10-500 nM
[22] = Half life in Sprague-Dawley rat at 1 mg/kg, iv; assay type: ADME, organism-based; details: in vivo
[23] = Tmax in Sprague-Dawley rat at 1 mg/kg, iv; assay type: ADME, organism-based; details: in vivo
[24] = Cmax in Sprague-Dawley rat at 1 mg/kg, iv; assay type: ADME, organism-based; set-up: route intravenous, dose 1 mg/kg; details: in vivo
[25] = Half life in Sprague-Dawley rat at 10 mg/kg, po; assay type: ADME, organism-based; details: in vivo
[26] = Tmax in Sprague-Dawley rat at 10 mg/kg, po; assay type: ADME, organism-based; details: in vivo
[27] = AUC (0 to t) in Sprague-Dawley rat at 10 mg/kg, po; assay type: ADME, organism-based; set-up: dose 10 mg/kg; details: in vivo
[28] = AUC (0 to infinity) in Sprague-Dawley rat at 10 mg/kg, po; assay type: ADME, organism-based; set-up: time infinity, route oral, dose 10 mg/kg; details: in vivo
[29] = system: BaF3; assay: Antitumor activity against KIF5B-RET V804M mutant fusion protein expressing mouse BaF3 cells implanted in iv dosed BALB/c mouse assessed as tumor growth inhibition administered once daily for 7 days; assay type: functional, organism-based; details: dose 30-50 mg/kg, time 7.0 day
[30] = system: Mus musculus; assay: In vivo inhibition of KIF5B-RET V804M mutant fusion protein in BALB/c mouse implanted with KIF5B-RET V804M mutant fusion protein expressing mouse BaF3 cells assessed as reduction in SHC phosphorylation at 30 to 50 mg/kg, iv administered daily for 7 days and measured 4 hrs post last dose by Western blot analysis; assay type: functional, organism-based; details: dose 30-50 mg/kg, time 7.0 day
[31] = system: BaF3; assay: Induction of apoptosis in KIF5B-RET fusion protein expressing mouse BaF3 cells implanted in BALB/c mouse assessed as increase in cleaved caspase-3 level at 30 to 50 mg/kg, iv administered once daily for 7 days measured 4 hrs post last dose by H and E staining based immunohistochemical analysis; assay type: functional, organism-based; details: dose 30-50 mg/kg, time 7.0 day
[32] = Toxicity in BALB/c mouse implanted with KIF5B-RET fusion protein expressing mouse BaF3 cells assessed as body weight loss at 30 to 50 mg/kg, iv administered daily for 7 days measured daily during compound dosing; assay type: organism-based; details: in vivo, 168 h, dose 30-50 mg/kg, time 7 day

## Cc1ccc(C(=O)Nc2ccc(CN3CCN(C)CC3)c(C(F)(F)F)c2)cc1Oc1nc(-c2cccnc2)nc2[nH]ncc12
[1]
  GI50: 9 nM
[2]
  GI50 at 48 h: 8030 nM
[3]
  IC50: 8.42 nM
[4]
  IC50: 15.1 nM
[5]
  IC50: 5.43 nM
[6]
  Activity: 0%
[7]
  Activity: 0.8%
[8]
  Activity: 0.25%
[9]
  GI50: 38 nM
[10]
  GI50: 3390 nM
[11]
  GI50: 5680 nM
[12]
  GI50: 5370 nM
[13]
  inhibition of growth at 3.3 µM: 39%
[14]
  inhibition: Dose-dependent effect
[15]
  inhibition: Dose-dependent effect
[16]
  inhibition: Active
[17]
  inhibition: Active
[18]
  inhibition: Active
[19]
  inhibition: Active
[20]
  inhibition: Active
[21]
  inhibition: Active
[22]
  half-life: 4.28 h
[23]
  Tmax: 4.98 min
[24]
  Cmax: 6100 ng/mL
[25]
  half-life: 7.59 h
[26]
  Tmax: 0.75 h
[27]
  AUC(0-t): 2110 ng·h/mL
[28]
  AUC(0-inf): 2340 ng·h/mL
[29]
  Activity: Dose-dependent effect
[30]
  inhibition: Dose-dependent effect
[31]
  Activity: Active
[32]
  Activity: Non-Toxic
